Experimental data taken from patent US8541442B2, “Indole derivatives as anticancer agents” (Janssen Pharmaceutica N.V., priority 2009, dated 2013).
Where two headings read alike, the source gives them in different places.

Legend:
[1] = system: colorectal cancer cell line HCT116; assay: Alamar Blue cell proliferation assay, HCT116; assay type: cell-based; conditions: for HCT116 cell proliferation inhibition pIC50: HCT116 cells; for IC50: Homo sapiens, HCT-116, HCT116 cells, read-out: HCT116 cell proliferation inhibition pIC50 (converted)
Method: For experiments in 384 wells plates the cells were seeded at a density of 5×10^3 cells/ml in Falcon 384-well culture plates (Life Technologies, Merelbeke, Belgium), black with clear bottom, in 45 μl culture medium. Cells were allowed to adhere to plastic for 24 hr. The tested compound was pre-diluted (1/50 in culture medium) and 5 μl pre-diluted compound was added to the wells. Following 4-day incubation, 10 μl of the Alamar Blue solution was added to each well and the cells were further incubated for 5 hrs (A2780) at 37° C. The fluorescence intensity was measured for each well with a Fluorescence plate reader (Fluorskan, Labsystems, 540 nm excitation and 590 nm emission)
The antiproliferative activity was calculated as percentage of remaining viable cells in treated versus control (untreated cells) conditions. Within an experiment, the result for each experimental condition is the mean of 3 replicate wells. When appropriate, the experiments were repeated to establish full concentration-response curves. When appropriate, IC50-values (concentration of the drug, needed to reduce cell growth to 50% of the control) were computed using probit analysis for graded data (Finney, D. J., Probit Analyses, 2nd Ed. Chapter 10, Graded Responses, Cambridge University Press, Cambridge 1962). Herein the effects of test compounds are expressed as pIC50 (the negative log value of the IC50-value (M)) (see Table 5A).
Compounds were also tested according to the above protocol but using other cell lines: colorectal cancer cell line HCT116, non-small cell lung cancer cell line H1299, human prostate cancer cell line DU145.

[2] = system: human U87 glioma tumor; assay: In vivo anti tumour effects, U87 glioma xenograft; conditions: U87 xenograft in NMRI Nude mice, 20 mg/kg p.o. QD for 5 days; for response vs control in vivo at 20 mg/kg: Mus musculus, U-87 MG, po
Method: Immuno-deficient (athymic) male NMRI Nude (Nu/Nu) mice (20-25 g obtained from Janvier, France) were used for these studies. Initial weight was approximately […]. All animals were maintained under SPF “full barrier” conditions with free access to food and water. Mice were group housed under a 12-h light:dark cycle (lights on at 06:00 h) at a temperature of 19 to 22° C. and 35 to 40% humidity in Techniplast type-3 IVC cages. Mice were fed a standard Laboratory chow. All experiments were carried out in accordance with the European Communities Council Directives (86/609/EEC) and had to be approved by the local ethical committee. For an established tumor xenograft model (tumor volume ˜200 mm^3), mice were randomized according to tumor volumes, with 5 mice per treatment group.
The human U87 glioma tumor cell line was derived from a patient. Cells were cultured at 37° C. in a humidified atmosphere (5% CO2, 95% air), in DMEM medium supplemented with 2 mM L-glutamine, 2.0 mM sodium pyruvate, 25 units/ml penicillin/25 μg/ml streptomycin and 10% fetal bovine serum. Cells were maintained as cell monolayer cultures, being passaged twice weekly at 3×10^6 cells per T175 flask using the following procedure. Briefly cells were washed with PBS (without Mg^2+, Ca^2+), before addition of trypsin-EDTA to the culture flasks. After detachment of cells the trypsin-EDTA was inactivated by addition of complete medium. Cell suspension was then transferred to 50 ml Falcon tube and centrifuged for 3 min at 1200 rpm. Medium was aspirated, with the cells being re-suspended in an appropriate volume of complete medium. The cells were counted in a haemocytometer and their viability was assessed by 0.25% trypan blue exclusion. An appropriate volume of cell suspension was then added to either a new T175 culture flask(s) or roller bottle containing fresh medium. For large scale-up growth of U87 tumor cells, an appropriate number of roller bottles were seeded with 0.5 to 1×10^7 cells 1 week prior to inoculation of mice. The medium was changed twice during this period, with the last change being the day prior to cell injection. Cells were collected as described above, with the exception that after centrifugation, the cells were re-suspended in cold (4° C.) serum-free medium. Mice were injected in the inguinal region with 1×10^7 cells total in a 200 μl volume.
Human U87 glioma cells were injected directly into the inguinal region of the male NMRI Nude mice (1×10^7 cells/200 μl/animal) on day 0 (D0). On day 7-10 (can vary due to tumor take/growth between cell batches) when tumor volume had reached an approximate average of 200 mm^3, mice were randomized according to tumor volume, with 5 mice per treatment group. Mice were then treated once daily (QD) with either vehicle (10% HP-β-CD) or vehicle containing test compound (20 mg/kg) by gavage (p.o.) administered in a volume of 10 ml/kg body weight for 5 days. Specific tumor measurements were taken on day 6 (24 hours post 5th dose) and then again on day 10. Tumor re-growth (after dosing has stopped) was monitored so that the time-to-reach a volume of 2000 mm^3 (TTR2000) can be recorded. This gives extra information on the duration of drug action on the tumor growth. In general, tumor size and body weights were measured twice weekly, with mice monitored daily for clinical signs of toxicity for the duration of the treatment. Clinical signs of toxicity included (but not limited to), persistent anorexia or dehydration, posture, moribund, lethargy, hypothermia and/or laboured respiration (according to the UKCCCR guidelines for welfare of animals in experimental neoplasia (The UKCCCR (UK Coordinating Committee on Cancer Research) guidelines for the welfare of animals in experimental neoplasia (July 1997); and Workman, P. et al. UKCCCR guideline. Br. J. Cancer. 1998, 77: 1-10). […]

[3] = 144 h, day 6 after start dosing, read-out: % T/C day 6
[4] = 240 h, day 10 after start dosing, read-out: % T/C day 10
[5] = day 6 after start dosing, 20 mg/kg
[6] = day 10 after start dosing, 20 mg/kg

| SMILES | HCT116 cell proliferation inhibition pIC50 [1] | IC50 [1] [nM] | % T/C day 6 [2, 5] [%] | % T/C day 10 [2, 6] [%] | also measured |
| --- | --- | --- | --- | --- | --- |
| COc1cc(Nc2ccnc3c2CCC3O)ccc1NCCc1c[nH]c2c(C(C)(C)O)cccc12 (stereo not drawn) [Compound 11] | 6.67 |  |  |  | % T/C day 6 ([2]; day 6 after start dosing): 72%; % T/C day 10 ([2]; day 10 after start dosing): 79% |
| OCc1cccc2c(CCNc3ccc(Nc4ccnc5c4CCC5O)cc3)c[nH]c12 (stereo not drawn) [Compound 6] |  | 4070 |  |  | response vs control in vivo at 20 mg/kg [2, 3]: 105%; response vs control in vivo at 20 mg/kg [2, 4]: 99% |
| C=C(C)c1cccc2c(CCNc3ccc(Nc4ccnc5c4CCC5OC)cc3)c[nH]c12 (stereo not drawn) [Compound 7] |  | 100 |  |  |  |
| Cc1cc(Nc2ccnc3c2CCC3O)ccc1NCCc1c[nH]c2c(CCO)cccc12 (single isomer, unassigned) [Compound 23] | 5.53 |  |  |  | % T/C day 6 ([2]; day 6 after start dosing): 72%; % T/C day 10 ([2]; day 10 after start dosing): 95% |
| CC(C)(O)c1cccc2c(CCNc3ccc(Nc4ccnc5c4CCC5(C)O)cc3)c[nH]c12 (single isomer, unassigned) [Compound 30] | 7.19 |  | −61 | −10 |  |
| Cc1cc(Nc2ccncc2)ccc1NCCc1c[nH]c2c(C(C)(C)O)cccc12 [Compound 2] |  |  |  |  | response vs control in vivo at 20 mg/kg [2, 3]: 14%; response vs control in vivo at 20 mg/kg [2, 4]: -0.23% |
| COC1CCc2c(Nc3ccc(NCCc4c[nH]c5c(C(C)(C)O)cccc45)cc3)ccnc21 (single isomer, unassigned) [Compound 25] |  |  | 330 | −3 |  |
| COC1CCc2c(Nc3ccc(NCCc4c[nH]c5c(C(C)(C)O)cccc45)c(C)c3)ccnc21 (single isomer, unassigned) [Compound 29] | 7.37 |  | −196 | −13 |  |
| Cc1cc(Nc2ccnc3c2CCC3(C)O)ccc1NCCc1c[nH]c2c(C(C)(C)O)cccc12 (single isomer, unassigned) [Compound 26] | 7.26 |  | 354 | −11 |  |
| COC1CCc2c(Nc3ccc(NCCc4c[nH]c5c(C(C)(C)O)cccc45)cc3)ccnc21 (single isomer, unassigned) [Compound 24] |  | 38 | 60 | 1 |  |
| Cc1cc(Nc2ccnc3c2CCC3O)ccc1NCCc1c[nH]c2c(CCC(C)O)cccc12 (stereo not drawn) [Compound 9] |  | 955 |  |  | response vs control in vivo at 20 mg/kg [2, 3]: 145%; response vs control in vivo at 20 mg/kg [2, 4]: 113% |
| COC1CCc2c(Nc3ccc(NCCc4c[nH]c5c(C(C)O)cccc45)c(C)c3)ccnc21 (stereo not drawn) [Compound 16] | 6.68 |  |  |  | % T/C day 6 ([2]; day 6 after start dosing): 63%; % T/C day 10 ([2]; day 10 after start dosing): 64% |
| Cc1cc(Nc2ccnc3c2CCC3(C)O)ccc1NCCc1c[nH]c2c(C(C)(C)O)cccc12 (single isomer, unassigned) [Compound 27] |  | 83.2 | 193 | 22 |  |
| Cc1cc(Nc2ccnc3c2CCC3=O)ccc1NCCc1c[nH]c2c(C(C)O)cccc12 (stereo not drawn) [Compound 4] |  | 1000 |  |  | response vs control in vivo at 20 mg/kg [2, 3]: 77%; response vs control in vivo at 20 mg/kg [2, 4]: 129% |
| Cc1cc(Nc2ccnc3c2CCC3(C)O)ccc1NCCc1c[nH]c2c(C(C)O)cccc12 (stereo not drawn) [Compound 10] | 6.47 |  |  |  | % T/C day 6 ([2]; day 6 after start dosing): 96%; % T/C day 10 ([2]; day 10 after start dosing): 71% |
| Cc1cc(Nc2ccnc(CO)c2)ccc1NCCc1c[nH]c2c(C(C)(C)O)cccc12 [Compound 19] |  |  |  |  | % T/C day 6 ([2]; day 6 after start dosing): 57%; % T/C day 10 ([2]; day 10 after start dosing): 40% |
| Cc1cc(Nc2ccnc3c2CCC3O)ccc1NCCc1c[nH]c2c(C(C)(C)O)cccc12 (stereo not drawn) [Compound 18] |  | 53.7 |  |  | response vs control in vivo at 20 mg/kg [2, 3]: 9%; response vs control in vivo at 20 mg/kg [2, 4]: -3% |
| Cc1cc(Nc2ccnc3c2CCC3(C)O)ccc1NCCc1c[nH]c2c(C(C)(C)O)cccc12 (stereo not drawn) [Compound 1] |  | 151 |  |  | response vs control in vivo at 20 mg/kg [2, 3]: 17%; response vs control in vivo at 20 mg/kg [2, 4]: 8% |
| Cc1cc(Nc2ccnc3c2CCC3O)ccc1NCCc1c[nH]c2c(C(C)O)cccc12 (single isomer, unassigned) [Compound 15] | 6.69 |  | 53 | 88 |  |
| Cc1cc(Nc2ccnc(CO)c2)ccc1NCCc1c[nH]c2c(C(C)O)cccc12 (stereo not drawn) [Compound 5] |  | 347 |  |  | response vs control in vivo at 20 mg/kg [2, 3]: 103%; response vs control in vivo at 20 mg/kg [2, 4]: 67% |
| CC(C)(O)c1cccc2c(CCNc3ccc(Nc4ccnc5c4CCC5(C)O)cc3)c[nH]c12 (single isomer, unassigned) [Compound 31] | 6.94 |  | 179 | 1 |  |
| Cc1cc(Nc2ccncc2)ccc1NCCc1c[nH]c2c(C(O)C(C)C)cccc12 (stereo not drawn) [Compound 22] |  |  |  |  | % T/C day 6 ([2]; day 6 after start dosing): 40%; % T/C day 10 ([2]; day 10 after start dosing): 55% |
| Cc1cc(Nc2ccnc3c2CCC3O)ccc1NCCc1c[nH]c2c(C(C)O)cccc12 (single isomer, unassigned) [Compound 12] | 6.06 |  | 64 | 71 |  |
| COC1CCc2c(Nc3ccc(NCCc4c[nH]c5c(C(C)(C)O)cccc45)c(C)c3)ccnc21 (single isomer, unassigned) [Compound 28] | 7.11 |  | −280 | −10 |  |
